# Data reported in patent US9895335B2, “Ophthalmic compositions containing a nitric oxide donor” (NICOX SCIENCE IRELAND, priority 2013, dated 2018).
# Tested on: hypertonic saline-induced IOP increase in rabbits
# Assay: Intraocular pressure (IOP) lowering activity in hypertonic saline-induced IOP increase in rabbits
# Assay type: in vivo, New Zealand White rabbits
# Design: unit not given here
# Conditions: topical, versus vehicle and versus basal IOP before hypertonic saline injection
# Procedure: Intraocular Pressure (IOP) Lowering Activity in Hypertonic Saline-Induced IOP Increase in Rabbits
# The Intraocular pressure (TOP) lowering activity of compound (Ia) (Example 1) was assessed in an animal model of elevated IOP.
# Adults male New Zealand White rabbits weighting 1.8-2.0 Kg were used in the experiments.
# IOP was measured using a Tono-Pen XL prior to hypertonic saline injection (basal) and at 30, 60, 120 and 240 min thereafter. Vehicle (5% cremophor-EL; 0.3% DMSO; 0.2 mg/ml bac in PBS pH 6.0,) or compound (Ia) dissolved in the vehicle at different concentrations (0.1%, 0.3% and 1%) was instilled as eye drops immediately after hypertonic saline injection. Eyes were randomly assigned to different treatment groups. Vehicle or compound (Ia) was directly instilled into the conjunctiva pocket at the desired doses. One drop of 0.4% oxybuprocaine hydrochloride (Novesine, Sandoz) was instilled in each eye immediately before each set of pressure measurements.
# Results are reported in Table in which the ocular hypotensive activity of compound (Ia) at different is expressed as IOP change (at 60 and 120 minutes following topical administration) versus vehicle and versus IOP at basal before hypertonic saline injection.
structure (smiles),measurement,setting,value
"CCCC(=O)OCCCCO[N+](=O)[O-] [Compound (Ia), 4-Nitrooxybutan-1-Ol Butyrate]",IOP change,"0.1% eye drops, 60 min after administration",−10.3 ± 0.3
same,IOP change,"0.1% eye drops, 120 min after administration",−5 ± 1.8
same,IOP change,"0.3% eye drops, 60 min after administration",−16.5 ± 3.8
same,IOP change,"0.3% eye drops, 120 min after administration",−9 ± 2.1
same,IOP change,"1% eye drops, 60 min after administration",−21.1 ± 4.5
same,IOP change,"1% eye drops, 120 min after administration",−15.1 ± 2.3
